Some test systems named below: UO-31; MOLT-4; Hs-578T; PC-3; U-251; KM12; MCF7; T47D; SNB-19; OVCAR-5; HCT-116; EKVX; RPMI-8226; MDA-N; COLO 205; UACC-257; ACHN; A549; HOP-92; NCI-H522.
What all share (experiment): growth of human tumour cells (NCI), 48 h

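Cells were grown in 96-well plates and exposed to each compound for 48 hours at five concentrations; endpoints were interpolated linearly between bracketing concentrations, or set to the highest concentration if not reached. GI50: concentration for 50% inhibition of growth.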 Calls of active or inactive are those of the source. Rule as the data show it: active = GI50 up to about 1.1 µM and inactive = higher. Where only a bound is given, the exact number is not on record here.

As for `O=C(O)C(Cc1ccccc1)NCc1c(O)ccc2c(-c3ccccc3)cc(=O)oc12` (stereo not given), the GI50 in the assay on UO-31, in the assay on MOLT-4, in the assay with Hs-578T, with PC-3, in the assay on U-251 and in the assay on KM12 was > 100 µM (inactive) in each case. The GI50 in the assay with MCF7, in the assay on T47D, with SNB-19, in the assay on OVCAR-5, in the assay with HCT-116 and with EKVX was > 100 µM (inactive) in each case. In addition, the GI50 with RPMI-8226, in the assay with MDA-N, in the assay on COLO 205, with UACC-257, in the assay with ACHN and in the assay on A549 was > 100 µM (inactive) each time. The GI50 with HOP-92 and in the assay with NCI-H522 was > 100 µM (inactive) each time.
For `SC1CCCN(Cc2ccccc2)C1` (stereo not given), the GI50 in the assay on UO-31 is 54.2 µM (inactive); with MOLT-4, 26.5 µM (inactive); in the assay with Hs-578T it was 78.5 µM (inactive); in the assay with PC-3, 57.5 µM (inactive); in the assay with U-251 it was 33.4 µM (inactive); with KM12 it was 34.1 µM (inactive). In addition, the GI50 in the assay with MCF7 is 20.8 µM (inactive); in the assay with T47D, 27.5 µM (inactive); in the assay with SNB-19, > 100 µM (inactive); with OVCAR-5, > 100 µM (inactive); with HCT-116, 61.1 µM (inactive); in the assay on EKVX it was > 100 µM (inactive). Further, the GI50 in the assay with RPMI-8226 was 21.3 µM (inactive); with MDA-N it was 59 µM (inactive); in the assay with COLO 205, 17.9 µM (inactive); in the assay with UACC-257, 32.4 µM (inactive); in the assay with ACHN it was 74.8 µM (inactive); in the assay with A549, 53.7 µM (inactive). Besides, the figures for the GI50 with HOP-92 and in the assay with NCI-H522 were 60 µM (inactive) and 35.7 µM (inactive), respectively.
With `COC(=O)c1cc2c(cc1Cl)Sc1nnc(Nc3ccc(C)cc3)n1S2(=O)=O`, the GI50 is 10.5 µM (inactive) in the assay on UO-31; 2.94 µM (inactive) in the assay with MOLT-4; 4.9 µM (inactive) in the assay on Hs-578T; 4.85 µM (inactive) in the assay on PC-3; 3.87 µM (inactive) in the assay on U-251; 5.57 µM (inactive) in the assay with KM12. Further, the GI50 is 3.72 µM (inactive) in the assay with MCF7; 1.75 µM (inactive) with T47D; 5.81 µM (inactive) with SNB-19; 17.1 µM (inactive) in the assay on OVCAR-5; 8.93 µM (inactive) in the assay on HCT-116; 12.9 µM (inactive) in the assay on EKVX. The GI50 in the assay with RPMI-8226 is 2.17 µM (inactive); in the assay with MDA-N it was 6.44 µM (inactive); with COLO 205, 4.84 µM (inactive); with UACC-257, 12.2 µM (inactive); in the assay with ACHN, 3.48 µM (inactive); in the assay with A549, 15.4 µM (inactive). Also, the values for the GI50 with HOP-92 and in the assay on NCI-H522 were 3.66 µM (inactive) and 2.67 µM (inactive), respectively.
As for `CCCCCCCCCCOCCOCCOCCOCCCCC(O)CCCCCCCC1=C[C@H](C)OC1=O` (stereo not given in full), the GI50 in the assay with UO-31 is 7.78 µM (inactive); with MOLT-4 it was 2.83 µM (inactive); with Hs-578T, 14.8 µM (inactive); in the assay with PC-3 it was 9.98 µM (inactive); with U-251, 11.1 µM (inactive); in the assay on KM12 it was 10.6 µM (inactive). For the same compound, the GI50 is 5.62 µM (inactive) with MCF7; 8.39 µM (inactive) with T47D; 13.8 µM (inactive) with SNB-19; 15.7 µM (inactive) in the assay with OVCAR-5; 9.53 µM (inactive) with HCT-116; 10.7 µM (inactive) in the assay with EKVX. For the same compound, the GI50 in the assay with RPMI-8226 is 0.933 µM (active); with MDA-N, 11.6 µM (inactive); in the assay on COLO 205, 15.2 µM (inactive); in the assay with UACC-257, 9.14 µM (inactive); in the assay with ACHN it was 11.7 µM (inactive); in the assay with A549, 9.31 µM (inactive). Besides, the values for the GI50 with HOP-92 and in the assay with NCI-H522 were 14.2 µM (inactive) and 6.34 µM (inactive), respectively.
In the case of `CC(CN1CC(=O)NC(=O)C1)N1CC(=O)NC(=O)C1` (stereo not given) [RAZOXANE], the GI50 in the assay with UO-31 is 349 µM (inactive); in the assay on MOLT-4 it was 34.9 µM (inactive); in the assay on Hs-578T it was 72.3 µM (inactive); in the assay with PC-3, 66.1 µM (inactive); in the assay on U-251 it was 201 µM (inactive); in the assay on KM12 it was 398 µM (inactive). The GI50 in the assay with MCF7 was 33.2 µM (inactive); in the assay with T47D, 231 µM (inactive); in the assay on SNB-19 it was 313 µM (inactive); in the assay with OVCAR-5 it was 343 µM (inactive); in the assay on HCT-116 it was 104 µM (inactive); in the assay on EKVX, 209 µM (inactive). Besides, the GI50 with RPMI-8226 is 254 µM (inactive); with MDA-N, 182 µM (inactive); with COLO 205, 22.5 µM (inactive); with UACC-257, 535 µM (inactive); with ACHN it was 242 µM (inactive); in the assay with A549, 32.9 µM (inactive). Also, the GI50 in the assay with HOP-92 is 211 µM (inactive); in the assay on NCI-H522 it was 90.8 µM (inactive).

For the origin of these results see ChEMBL document CHEMBL1201862, “PubChem BioAssay data set” (2004).
